According to patent US7569570B2, “Thienopyrimidines, process for preparing the same and use thereof” (Takeda Pharmaceutical Company Limited, priority 2002, dated 2009):

melting point	Structure (SMILES)
210 to 213 °C	CCNC(=O)Nc1ccc(-c2sc3c(c2CN(C)C2CCCC2)c(=O)n(-c2ccccc2)c(=O)n3Cc2c(F)cccc2F)cc1 [Example 93, N-{4-[5-{[cyclopentyl(methyl)amino]methyl}-1-(2,6-difluorobenzyl)-2,4-dioxo-3-phenyl-1,2,3,4-tetrahydrothieno[2,3-d]pyrimidin-6-yl]phenyl}-N′-ethylurea]
236 to 239 °C	CCNC(=O)Nc1ccc(-c2sc3c(c2CN(C)CCOC)c(=O)n(-c2ccc(NC(=O)NCC)cc2)c(=O)n3Cc2c(F)cccc2F)cc1 [Example 99, N-[4-(3-(4-{(ethylamino)carbonylamino}phenyl)-1-(2,6-difluorobenzyl)-5-{[2-methoxyethyl(methyl)amino]methyl}-2,4-dioxo-1,2,3,4-tetrahydrothieno[2,3-d]pyrimidin-6-yl)phenyl]-N′-ethylurea]
228 to 231 °C	CCNC(=O)Nc1ccc(-c2sc3c(c2CN(C)CCOCCOC)c(=O)n(-c2ccccc2)c(=O)n3Cc2c(F)cccc2F)cc1 [Example 109, N-[4-(1-(2,6-difluorobenzyl)-5-{[[2-(2-methoxyethoxy)ethyl](methyl)amino]methyl}-2,4-dioxo-3 phenyl-1,2,3,4-tetrahydrothieno[2,3-d]pyrimidin-6-yl)phenyl]-N′-ethylurea]
212 to 215 °C	CCNC(=O)Nc1ccc(-c2sc3c(c2CN(C)CCOC)c(=O)n(-c2ccc(OCCOC(C)=O)cc2)c(=O)n3Cc2c(F)cccc2F)cc1 [Example 107, 2-[4-(1-(2,6-difluorobenzyl)-6-(4-{[(ethylamino)carbonyl]amino}phenyl)-5-([(2-methoxyethyl(methyl)amino)methyl]-2,4-dioxo-1,2,3,4-tetrahydrothieno[2,3-d]pyrimidin-3(2H)-yl}phenoxy)ethyl acetate]
210 to 211 °C	CCNC(=O)Nc1ccc(-c2sc3c(c2CN(C)CCN2CCCS2(=O)=O)c(=O)n(-c2ccccc2)c(=O)n3Cc2c(F)cccc2F)cc1 [Example 86, N-[4-(1-(2,6-difluorobenzyl)-5-([[2-(1,1-dioxo-2-isothiazolidinyl)ethyl](methyl)amino]methyl}-2,4-dioxo-3-phenyl-1,2,3,4-tetrahydrothieno[2,3-d]pyrimidin-6-yl)phenyl]-N′-ethylurea]
206 to 208 °C	CCNC(=O)Nc1ccc(-c2sc3c(c2CN(C)CCOC)c(=O)n(-c2ccc(OCCOC)c(OCCOC)c2)c(=O)n3Cc2c(F)cccc2F)cc1 [Example 101, N-[4-(3-[3,4-bis(2-methoxyethoxy)phenyl]-1-(2,6-difluorobenzyl)-5-{[(2-methoxyethyl)(methyl)amino]methyl}-2,4-dioxo-1,2,3,4-tetrahydrothieno[2,3-d]pyrimidin-6-yl)phenyl]-N′-ethylurea]
223 to 225 °C	CCNC(=O)Nc1ccc(-c2sc3c(c2CN(C)CCOC)c(=O)n(-c2ccc(OCc4ccccc4)cc2)c(=O)n3Cc2c(F)cccc2F)cc1 [Example 102]
192 to 193 °C	CCNC(=O)Nc1ccc(-c2sc3c(c2CN(C)CCNC)c(=O)n(-c2ccccc2)c(=O)n3Cc2c(F)cccc2F)cc1 [Example 26, N-{4-[1-(2,6-difluorobenzyl)-5-({methyl[2-(methylamino)ethyl]amino}methyl)-2,4-dioxo-3-phenyl-1,2,3,4-tetrahydrothieno[2,3-d]pyrimidin-6-yl)phenyl}-N′-ethylurea]
236 to 237 °C	CCNC(=O)Nc1ccc(-c2sc3c(c2CN(C)CCC(=O)N(C)C)c(=O)n(-c2ccccc2)c(=O)n3Cc2c(F)cccc2F)cc1 [Example 10, 3-[{[1-(2,6-difluorobenzyl)-6-(4-{[(ethylamino)carbonyl]amino}phenyl)-2,4-dioxo-3-phenyl-1,2,3,4-tetrahydrothieno[2,3-d]pyrimidin-5-yl]methyl}(methyl)amino]-N,N-dimethylpropanamide]
198 to 200 °C	CCNC(=O)Nc1ccc(-c2sc3c(c2CN(C)CCC(=O)OCC)c(=O)n(-c2ccccc2)c(=O)n3Cc2c(F)cccc2F)cc1 [Example 4, ethyl 3-[{[1-(2,6-difluorobenzyl)-6-(4-{[(ethylamino)carbonyl]amino}phenyl)-2,4-dioxo-3-phenyl-1,2,3,4-tetrahydrothieno[2,3-d]pyrimidin-5-yl]methyl}(methyl)amino]propanate]
233 to 234 °C	CCNC(=O)Nc1ccc(-c2sc3c(c2CN(C)CC2CCN(C)C2=O)c(=O)n(-c2ccc(F)cc2)c(=O)n3Cc2c(F)cccc2F)cc1 (stereo not drawn) [Example 36, N-(4-[1-(2,6-difluorobenzyl)-3-(4-fluorophenyl)-5-({methyl[(1-methyl-2-oxo-3-pyrrolidinyl)methyl]amino}methyl)-2,4-dioxo-1,2,3,4-tetrahydrothieno[2,3-d]pyrimidin-6-yl]phenyl}-N′-ethylurea]
189 to 190 °C	CCNC(=O)Nc1ccc(-c2sc3c(c2CN(C)C[C@H]2CCCN2S(C)(=O)=O)c(=O)n(-c2ccccc2)c(=O)n3Cc2c(F)cccc2F)cc1 [Example 85]
203 to 205 °C	CCNC(=O)Nc1ccc(-c2sc3c(c2CNC)c(=O)n(-c2ccc(OCCOC)cc2)c(=O)n3Cc2c(F)cccc2F)cc1 [Example 28, N-(4-{1-(2,6-difluorobenzyl)-3-[4-(2-methoxyethoxy)phenyl]-5-[(methylamino)methyl]-2,4-dioxo-1,2,3,4-tetrahydrothieno[2,3-d]pyrimidin-6-yl}phenyl)-N′-ethylurea]
191 to 193 °C	CCNC(=O)Nc1ccc(-c2sc3c(c2CN(C)CCCC(=O)N(C)C)c(=O)n(-c2ccccc2)c(=O)n3Cc2c(F)cccc2F)cc1 [Example 18, 4-[{[1-(2,6-difluorobenzyl)-6-(4-{[(ethylamino)carbonyl]amino}phenyl)-2,4-dioxo-3-phenyl-1,2,3,4-tetrahydrothieno[2,3-d]pyrimidin-5-yl]methyl}(methyl)amino]-N,N-dimethylbutane amide]
222 to 225 °C	CCNC(=O)Nc1ccc(-c2sc3c(c2CN(C)CCOC)c(=O)n(-c2ccc(OCCOC)c(OCCOC)c2)c(=O)n3Cc2c(F)cccc2F)cc1 [Example 105]
211 to 213 °C	CCNC(=O)Nc1ccc(-c2sc3c(c2CNCCOCC)c(=O)n(-c2ccccc2)c(=O)n3Cc2c(F)cccc2F)cc1 [Example 3]
185 to 186 °C	CCNC(=O)Nc1ccc(-c2sc3c(c2CN(C)CCNC(C)=O)c(=O)n(-c2ccccc2)c(=O)n3Cc2c(F)cccc2F)cc1 [Example 19, N-{2-[{[1-(2,6-difluorobenzyl)-6-(4-{[(ethylamino)carbonyl]amino}phenyl)-2,4-dioxo-3-phenyl-1,2,3,4-tetrahydrothieno[2,3-d]pyrimidin-5-yl]methyl}(methyl)amino]ethyl}acetamide]
218 to 220 °C	CCNC(=O)Nc1ccc(-c2sc3c(c2CN(C)CCOC)c(=O)n(-c2ccc(NC(C)=O)cc2)c(=O)n3Cc2c(F)cccc2F)cc1 [Example 98, N-[4-(3-(4-acetoaminophenyl)-1-(2,6-difluorobenzyl)-5-{[2-methoxyethyl(methyl)amino]methyl}-2,4-dioxo-1,2,3,4-tetrahydrothieno[2,3-d]pyrimidin-6-yl)phenyl]-N′-ethylurea]
